The values below are quoted from earlier work in the CATMoS acute toxicity set (Mansouri et al. 2021).

Values joined by “and” are separate entries in the source; they are usually repeats but may differ in a detail not shown here. Equal values may be shown once.

The data set in a line: rat acute oral toxicity. To be noted: in vivo.
On to `CC(=O)OC12CCC(C)=CCC13CCC2C(C)(C=CC=C(C)C(=O)O)OC3=O` (centres undefined), for which the LD50 (commonly the dose at which mortality reaches 50%) is 219 mg/kg.

For `Oc1cc2nc(C(F)(F)F)[nH]c2cc1Cl`, the LD50 was 55.5 mg/kg. For the compound `CCCOC(=O)CC(SP(=S)(OC)OC)C(=O)OCCC` (centres undefined), the LD50 was 6000 mg/kg. As to `CCOC(C1=NCC(CC)(CC)CN1)c1ccccc1` (centres undefined), the LD50 is 250 mg/kg. For `N#C[C@H](O[C@@H]1O[C@H](CO)[C@@H](O)[C@H](O)[C@H]1O)c1ccccc1`, the LD50 is 560 mg/kg. Consider `CC(C)CC(CCN(C(C)C)C(C)C)(C(N)=O)c1ccccn1` (centres undefined), for which the LD50 was 1100 mg/kg. Turning to `O=S1(=O)CC(Cl)C(Cl)C1` (centres undefined), the LD50 is 482 mg/kg. With `CCN(CC)CC1CCCCN1CC(=O)N1c2ccccc2C(=O)Nc2cccnc21` (centres undefined), the LD50 is 1530 mg/kg.

For the compound `C[C@]12CCC(=O)C=C1[C@@H]1C[C@@H]1[C@@H]1[C@@H]2CC[C@@]2(C)[C@H]1CC[C@@]2(O)CCC(=O)O`, the LD50 was 1400 mg/kg.

Regarding `S=C1NCNCN1`, the LD50 is 4.6 mg/kg. For `CCc1ccc2nc(C(F)(F)F)[nH]c2c1`, the LD50 was 28 mg/kg. Take `C=CCOc1ccccc1C(N)=O`: the LD50 was 780 mg/kg. As for `O=C1c2cccc(Br)c2C(=O)C1c1ccccc1` (centres undefined), the LD50 is 745 mg/kg. Turning to `CN1Cc2c(N)cccc2C(c2ccccc2)C1` (centres undefined), the LD50 was 267 mg/kg and 430 mg/kg. For `Cc1ccc(N=NN(C)C)cc1`, the LD50 was 395 mg/kg.

For `CCCCCCCCCCCCCCCCCC[N+](C)(C)CC(O)CCl` (centres undefined), the LD50 is 2590 mg/kg.

`CC(C=O)Cc1ccc(C(C)(C)C)cc1` (centres undefined): the LD50 was 1390 mg/kg. On to `COP(N)(=S)Oc1cc(Cl)c(Cl)cc1Cl` (centres undefined), for which the LD50 was 700 mg/kg. On to `CCOP(=S)(OCC)SCCS(=O)(=O)CC`, for which the LD50 is 7.5 mg/kg. Consider `CCOP(=O)(OCC)SC(C)(C)C`, for which the LD50 is 127 mg/kg.

With `C1C[C@H]2C[C@@H]1[C@H]1SSS[C@@H]21`, the LD50 was 300 mg/kg. `c1ccc([B-](c2ccccc2)(c2ccccc2)c2ccccc2)cc1`: the LD50 is 288 mg/kg. Turning to `CCOCCOCCOC(C)=O`, the LD50 is 11000 mg/kg.

`CC(C)CNC(=S)NCC(C)C`: the median lethal dose (LD50) is 800 mg/kg. In the case of `CC(=O)c1ccc(C)cc1`, the LD50 is 1400 mg/kg. With `COC(OC)C(C)c1ccccc1` (centres undefined), the LD50 is 1850 mg/kg. Consider `CC1(C)CNC(=NN=C(/C=C/c2ccc(C(F)(F)F)cc2)/C=C/c2ccc(C(F)(F)F)cc2)NC1`, for which the LD50 is 1130 mg/kg.

`N#Cc1ccc2nc(C(F)(F)F)[nH]c2c1`: the LD50 is 4.41 mg/kg. `O=C(NCCN1CCOCC1)c1ccc(Cl)cc1`: the LD50 was 707 mg/kg. For `CCS(=O)CCOP(=O)(OC)OC=C(Cl)Cl` (centres undefined), the LD50 was 110 mg/kg.

For the compound `CC(C)CS`, the LD50 is 7170 mg/kg. As to `CCO[Si](CNCCCCCCN)(OCC)OCC`, the LD50 is 500 mg/kg. As to `CCOC(=O)C(Cl)Cc1cc(-n2nc(C)n(C(F)F)c2=O)c(F)cc1Cl` (centres undefined), the LD50 is 5140 mg/kg.

On to `C=CCC1=C(C)[C@@H](OC(=O)[C@@H]2[C@@H](C=C(C)C)C2(C)C)CC1=O`, for which the LD50 was 430 mg/kg.

For `O=C(Nc1cccc(Cl)c1)OCC#CCOC(=O)Nc1cccc(Cl)c1`, the LD50 was 2040 mg/kg.

Turning to `C=C(OP(=O)(OC)OC)c1ccc(Cl)cc1Cl`, the LD50 was 2350 mg/kg. With `O=c1c(Cl)c(Cl)cnn1-c1ccccc1`, the LD50 was 2520 mg/kg. Consider `COC(=O)C1=C(C)NC(C)=C(C(=O)OC/C=C/c2ccccc2)C1c1cccc([N+](=O)[O-])c1` (centres undefined), for which the LD50 was 2970 mg/kg. In the case of `CN(Cc1cc(Br)cc(Br)c1N)C1CCCCC1`, the LD50 was 6000 mg/kg. Turning to `c1ccc(-c2nnn[nH]2)cc1`, the LD50 is 1900 mg/kg. Turning to `CS(=O)(=O)OCCCN(CCCOS(C)(=O)=O)Cc1ccccc1`, the LD50 was 375 mg/kg.

Turning to `C[C@H](CN1CCCC1)C(=O)c1ccc(C(F)(F)F)cc1`, the LD50 is 525 mg/kg. As to `CCOC(=O)C=CN(C)C`, the LD50 is 4500 mg/kg.

On to `CCN(CC)C(C)C(=O)c1ccccc1` (centres undefined), for which the LD50 was 400 mg/kg. As for `ClC(Cl)(Cl)c1cccc(C(Cl)(Cl)Cl)c1`, the LD50 was 2920 mg/kg. Regarding `CCC=CC=CC=O`, the LD50 is 1150 mg/kg.

In the case of `Cc1ccsc1/C=C/C1=NCCCN1C`, the LD50 is 926 mg/kg. Regarding `C=CC(=O)Nc1ccc(O)cc1`, the LD50 is 930 mg/kg. `COc1cc(S(C)=O)ccc1-c1nc2ncccc2[nH]1` (centres undefined): the LD50 is 315 mg/kg. As for `O=C1[C@H]2C[C@@H]3[C@@H]4[C@H]2[C@]2(Cl)[C@@H](Cl)[C@](Cl)([C@H]13)[C@@]4(Cl)C2(Cl)Cl` (racemic), the LD50 is 10 mg/kg. Take `CN(c1ccc(Cl)cc1)S(=O)(=O)c1ccc(Cl)cc1`: the median lethal dose (LD50) is 2500 mg/kg.

Consider `CS(=O)(=O)c1ccc(Cl)cc1`, for which the LD50 was 400 mg/kg. With `O=[N+]([O-])c1ccc(Cl)c2nc(C(F)(F)F)[nH]c12`, the LD50 is 11.1 mg/kg. Consider `C=C1CC[C@H](O)C/C1=C/C=C1\CCC[C@]2(C)[C@@H]([C@H](C)CCCC(C)C)CC[C@@H]12`, for which the LD50 is 42 mg/kg. On to `COc1ccc(CCNCC(O)COc2ccc(OCC(C)=O)c3c2CCC(=O)N3)cc1OC` (centres undefined), for which the LD50 is 1260 mg/kg. In the case of `Cc1cc(-c2ccc(N=Nc3c(S(=O)(=O)O)cc4cc(S(=O)(=O)O)cc(N)c4c3O)c(C)c2)ccc1N=Nc1c(S(=O)(=O)O)cc2cc(S(=O)(=O)O)cc(N)c2c1O`, the LD50 was 6200 mg/kg. Turning to `CCOC(=O)c1nocc1C(=O)c1ccccc1`, the LD50 was 1000 mg/kg. Take `CCN(CC)C(=O)Nc1ccc(OCC(O)CNC(C)(C)C)c(C(C)=O)c1` (centres undefined): the median lethal dose (LD50) is 2160 mg/kg.

As to `CCCn1c(C)cc(OP(=S)(OCC)OCC)cc1=O`, the LD50 is 9.75 mg/kg.
